Common to all, as to assay: Response of tumor cell lines to erastin (dose-response)
One experiment relates to SK-ES-1. It counts as cell-based. The following applies: SICES1. The protocol:
(§1) In certain aspects, the invention provides that erastin is lethal to tumor cells with activating mutations in proteins downstream of RAS proteins. Dose-response of 30 tumor cell lines to erastin was measured, and at least 50% inhibition of cell viability in 19 of the 30 tumor cell lines was formed. Numerous sarcoma-derived tumor cell lines were sensitive to erastin, consistent with the fact that erastin was discovered in an engineered tumor cell line created from human fibroblasts. Non-limiting examples include, HT1080 fibrosarcoma cells. HT1080 fibrosarcoma cells, which have a known activating mutation in NRAS, (Plattner, R. et al. Differential contribution of the ERK and JNK mitogen-activated protein kinase cascades to Ras transformation of HT1080 fibrosarcoma and DLD-1 colon carcinoma cells. Oncogene. 18: 1807-17 (1999), were quite sensitive to erastin. In order to determine whether RAS-activated signaling was modulated in cell lines that respond to erastin, the phosphorylation status of ERK1/2 in 12 sarcoma cell lines with a range of sensitivities to erastin was evaluated. In certain aspects, the invention provides a non-zero correlation, such as for example, a correlation coefficient of 0.41, between ERK1/2 phosphorylation status and erastin sensitivity in these cell lines.
(§2) Given that oncogenic RAS activates at least four downstream pathways, analysis was performed to identify which downstream effects were necessary for erastin sensitivity. In certain embodiments, the invention provides that erastin inhibits growth and kills genuine tumor cells with RAS mutations. In other embodiments, the invention provides measures of the dose-response of 29 tumor cell lines to erastin, wherein there is at least 50% inhibition of viability in 18 of the cell lines (Table 4). Numerous sarcoma-derived tumor cell lines were sensitive to erastin, consistent with the fact that erastin was discovered in an engineered tumor cell line created from human fibroblasts.

The test system of the next experiment is SK-N-MC. The format is cell-based. The protocol: as §1, §2
A further experiment concerns TC71. The format is cell-based. Particulars: TC 71. The protocol: as §1, §2
A further experiment concerns TC32. The format is cell-based. The following applies: TC 32. On the procedure:
as §1, §2

Another experiment relates to U973. The format is cell-based. The following applies: U937. On the procedure: as §1, §2
In a further experiment the test system is SW872. It counts as cell-based. Particulars: SW 872. The protocol:
as §1, §2

A further experiment deals with HL-60. The format is cell-based. On the procedure: as §1, §2
The next experiment concerns EWS502. The format is cell-based. The following applies: EWS 502. On the procedure:
as §1, §2

The test system of a further experiment is BJELR. The format is cell-based, human. Particulars: BJ-TERT/LT/ST/RASV12. The protocol: as §1, §2
The subject of another experiment is HT1080. The format is cell-based, human. Particulars: HT 1080. The protocol:
as §1, §2

In the next experiment the test system is A673. The format is cell-based, human. The protocol: as §1, §2
The test system of the next experiment is BJEH. The format is cell-based, human. Particulars: BJ-TERT. On the procedure: as §1, §2

Take `CCOc1ccccc1-n1c(C(C)N2CCN(C(=O)COc3ccc(Cl)cc3)CC2)nc2ccccc2c1=O` (stereo not drawn) [erastin]: the “Erastin Sensitivity (maximum killing induced by erastin)” value is given as 0.96 in the experiment with SK-ES-1; 0.95 in the experiment on SK-N-MC; 0.92 in the experiment on TC71; 0.88 in the experiment with TC32; 0.73 with U973; 0.00 in the experiment with SW872. In addition, the “Erastin Sensitivity (maximum killing induced by erastin)” value in the experiment on HL-60 is recorded as 0.00; in the experiment with EWS502 it was 0.42; in the experiment on BJELR, 1.00; with HT1080, 0.98; in the experiment on A673, 0.54; with BJEH, 0.22.

The values above are taken from patent US8535897B2, “Assays for non-apoptotic cell death and uses thereof” (The Trustees of Columbia University in the City of New York, priority 2006, dated 2013).
